{"source": "patent US8314140B2", "about": "“4-hydroxythiobenzamide derivatives of drugs” (Antibe Therapeutics Inc., priority 2006, dated 2012)", "key": {"COX-1 and/or COX-2": {"tested_on": "COX-1 and/or COX-2", "assay": "Gastric prostaglandin E2 synthesis", "assay_type": "in vivo, rat", "conditions": "oral, 3 h; diclofenac 20 mg/kg or equimolar doses; FIG. 9", "experimental": "Briefly, the tissue samples were minced with scissors for 30 min, then placed in 1 mL of sodium phosphate buffer (pH 7.4) and placed in a shaking water bath (37° C.) for 20 min."}, "COX-2": {"target": "T1, COX-2 (Rattus norvegicus, UniProt P35355)", "T1 construct": "from tissue; host or cells: rat subcutaneous airpouch exudate, in vivo, zymosan-induced", "T1 sequence (P35355 18-604)": "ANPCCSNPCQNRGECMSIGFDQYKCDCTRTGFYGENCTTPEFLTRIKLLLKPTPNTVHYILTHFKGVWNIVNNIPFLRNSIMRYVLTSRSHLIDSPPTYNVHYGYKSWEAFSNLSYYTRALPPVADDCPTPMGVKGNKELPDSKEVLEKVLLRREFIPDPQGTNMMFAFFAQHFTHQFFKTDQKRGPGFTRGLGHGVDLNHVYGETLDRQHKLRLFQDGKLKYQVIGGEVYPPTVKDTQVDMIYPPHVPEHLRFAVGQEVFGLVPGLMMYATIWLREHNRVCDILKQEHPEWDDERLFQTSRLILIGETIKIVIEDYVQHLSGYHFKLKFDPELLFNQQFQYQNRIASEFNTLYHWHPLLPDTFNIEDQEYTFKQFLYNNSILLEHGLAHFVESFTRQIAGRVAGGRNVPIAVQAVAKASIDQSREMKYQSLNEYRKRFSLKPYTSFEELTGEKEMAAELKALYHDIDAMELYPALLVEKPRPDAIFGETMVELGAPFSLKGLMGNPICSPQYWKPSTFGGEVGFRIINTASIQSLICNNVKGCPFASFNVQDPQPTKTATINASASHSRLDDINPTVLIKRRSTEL", "assay": "Rat airpouch assay, exudate PGE2 after zymosan", "assay_type": "in vivo", "conditions": "oral 30 min before; diclofenac 3 mg/kg, Compound XVII 4.1 mg/kg; FIG. 12", "experimental": "Briefly, a subcutaneous “pouch” is created by repeated injections of air over several days. Once established, inflammation in the pouch can be induced by injection of 1 mL of 1% zymosan. […] Another group of 5 rats was treated with the vehicle, but received an injection of 0.9% sterile saline into the pouch rather than zymosan.\nEach group consisted of 5 rats."}, "TNBS-induced colitis": {"tested_on": "TNBS-induced colitis", "assay": "TNBS-induced colitis in mice (disease activity score, MPO activity)", "assay_type": "in vivo", "conditions": "oral 100 mg/kg every 12 h for 5 days", "experimental": "A standard experimental animal model of colitis induced by intracolonic administration of 2,4,6-trinitrobenzene sulfonic acid (TNBS) to mice is used in the following example. A detailed description of this model has been published (Santucci et al. (2003) Gastroenterology 124:1381-94) and is incorporated herein by reference. Briefly, 6-8 week old Balb/c mice were given TNBS intracolonically at a dose of 1.5 mg in 0.1 mL of 30% ethanol. The mice were randomized to the various treatment groups (n=6 per group). Beginning one hour later and continuing every 12 h for 5 days, the mice were treated orally with vehicle (1% carboxymethylcellulose (CMC)), 5-ASA (mesalamine) alone (100 mg/kg), 4-hydroxythiobenzamide (referred to in the Figures as 4-HTB) (100 mg/kg), 5-amino-2-(4-thiocarbamoyl-phenoxycarbonyloxy)-benzoic acid (100 mg/kg) (referred to hereinafter as Compound XXVII) and equimolar doses of mesalamine (50 mg/kg) and (4-HTB) (50 mg/kg). *p<0.05 versus the vehicle-treated group. Each group consisted of at least 5 rats.\nThe mice were evaluated (blindly) on the final day of the study for the presence of diarrhea and fecal occult blood, and their body weights were measured. […] After sacrifice, a sample of the colon was excised for measurement of myeloperoxidase (MPO) activity, as a marker of granulocyte infiltration. All results were compared to those obtained with healthy mice as well."}, "[1]": {"tested_on": "leukocyte adherence to the vascular endothelium", "assay": "Aspirin-induced leukocyte adherence, intravital microscopy of mesenteric venules", "assay_type": "in vivo, rat", "conditions": "FIG. 5", "experimental": "Leukocyte adherence was studied using intravital microscopy, as described in detail previously (Wallace et al., (1993) Am. J. Physiol. 265: 993-998, incorporated hereto by reference). Rats were anesthetized with pentobarbital sodium (60 mg/kg i.p.) and cautery incisions were made along the abdominal region. A tracheotomy was performed to facilitate breathing. The rats were placed in a supine position, and a segment of the mesentery was exteriorized through the abdominal incision. The mesentery was carefully placed over an optically clear viewing pedestal that allowed for trans-illumination of a 2-cm^2 segment of tissue. All exposed tissue was covered with saline-soaked gauze to minimize dehydration. […] A video camera mounted on the microscope (Panasonic™ digital 5000) projected the image onto a monitor, and the images were recorded for playback analysis using a videocassette recorder. Images of the mesenteric microcirculation were recorded 5 minutes prior to aspirin administration (baseline), at the time of aspirin administration (time 0-5) and every 15 minutes for 60 minutes. Leukocyte adherence was blindly quantified from videotaped images of the vessels made over 5-min periods as the number of leukocytes that remained stationary along the vessel wall for 30 s or more (expressed per 100 μm venule length). […]"}}}
{"compound": "NC(=S)c1ccc(O)cc1", "note": "[4-hydroxythiobenzamide]", "values": [{"measurement": "gastric PGE2 synthesis", "setting": "COX-1 and/or COX-2", "value": "did not reduce gastric PGE2 synthesis"}, {"measurement": "exudate PGE2 in the pouch (COX-2 activity)", "setting": "COX-2", "value": "did not significantly affect COX-2 activity"}]}
{"compound": "5-amino-2-(4-thiocarbamoyl-phenoxycarbonyloxy)-benzoic acid [Compound XXVII]", "values": [{"measurement": "Disease Activity Score", "setting": "TNBS-induced colitis; FIG. 1", "value": "almost three times as effective"}, {"measurement": "myeloperoxidase (MPO) activity (granulocyte infiltration)", "setting": "TNBS-induced colitis; colon sample, FIG. 2", "value": "significantly reduced inflammation"}, {"measurement": "leukocyte adherence at 60-65 minutes", "setting": "[1]; 100 mg/kg intragastrically 60 min prior to aspirin", "value": "suppress aspirin-induced leukocyte adherence"}, {"measurement": "leukocyte adherence at 60-65 minutes after glibenclamide pretreatment", "setting": "[1]; glibenclamide 10 mg/kg i.p. 30 min prior, aspirin", "value": "reverse this inhibitor effect on leukocyte adherence"}]}
